Read-outs that look alike come from different tables or passages of the source.
Columns and labels:
Type in all cases: cell-based
DU-145 = assay: NCI 60 human tumor cell line screen (SRB): DU-145; settings: DU-145, Prostate, 48 hours, read-out: GI50 values (μM conc.)
Description: (§1) The in vitro anticancer activity studies for these chalcone analogues were carried out at the National Cancer Institute, USA.
(§2) The chalcone compounds have been tested at NCI, USA, against sixty human tumor cell lines derived from nine cancer types (leukemia, non-small cell lung cancer, colon cancer, CNS cancer, melanoma cancer, ovarian cancer, renal cancer, prostate cancer and breast cancer). For these compounds results are expressed as growth inhibition (GI50) values as per NCI protocol.
(§3) We describe here the development and implementation of a pilot-scale, in vitro, anticancer drug screen utilizing a panel of 60 human tumor cell lines organized into subpanels representing leukemia, melanoma, and cancers of the lung, colon, kidney, ovary, and central nervous system. The ultimate goal of this disease-oriented screen is to facilitate the discovery of new compounds with potential cell line-specific and/or subpanel-specific antitumor activity. In the current screening protocol, each cell line is inoculated onto microtiter plates, then preincubated for 28 hours. Subsequently, test agents are added in five 10-fold dilutions and the culture is incubated for an additional 48 hours. For each test agent, a dose-response profile is generated. End-point determinations of the cell viability or cell growth are performed by in situ fixation of cells, followed by staining with a protein-binding dye, sulforhodamine B (SRB). The SRB binds to the basic amino acids of cellular macromolecules; the solubilized stain is measured spectrophotometrically to determine relative cell growth or viability in treated and untreated cells.

HT29 = assay: NCI 60 human tumor cell line screen (SRB): HT29; settings: HT-29, HT29, Colon, 48 hours, read-out: GI50 values (μM conc.)
Description: as §1, §2, §3

ACHN = assay: NCI 60 human tumor cell line screen (SRB): ACHN; settings: Renal, 48 hours, read-out: GI50 values (μM conc.)
Description: as §1, §2, §3

CCRF-CEM = assay: NCI 60 human tumor cell line screen (SRB): CCRF-CEM; settings: Leukemia, 48 hours, read-out: GI50 values (μM conc.)
Description: as §1, §2, §3

OVCAR-8 = assay: NCI 60 human tumor cell line screen (SRB): OVCAR-8; settings: OVCAR-8, Ovarian, 48 hours, read-out: GI50 values (μM conc.)
Description: as §1, §2, §3

RPMI-8226 = assay: NCI 60 human tumor cell line screen (SRB): RPMI-8226; settings: RPMI-8226, Leukemia, 48 hours, read-out: GI50 values (μM conc.)
Description: as §1, §2, §3

SK-MEL-5 = assay: NCI 60 human tumor cell line screen (SRB): SK-MEL-5; settings: SK-MEL-5, Melanoma, 48 hours, read-out: GI50 values (μM conc.)
Description: as §1, §2, §3

UACC-257 = assay: NCI 60 human tumor cell line screen (SRB): UACC-257; settings: UACC-257, Melanoma, 48 hours, read-out: GI50 values (μM conc.)
Description: as §1, §2, §3

MCF7 = assay: NCI 60 human tumor cell line screen (SRB): MCF7
Description: as §1, §2, §3

UACC-62 = assay: NCI 60 human tumor cell line screen (SRB): UACC-62; settings: UACC-62, Melanoma, 48 hours, read-out: GI50 values (μM conc.)
Description: as §1, §2, §3

NCI-H226 = assay: NCI 60 human tumor cell line screen (SRB): NCI-H226; settings: NCI-H226, Non-small cell lung, 48 hours, read-out: GI50 values (μM conc.)
Description: as §1, §2, §3

LOX IMVI = assay: NCI 60 human tumor cell line screen (SRB): LOX IMVI; settings: Melanoma, 48 hours, read-out: GI50 values (μM conc.)
Description: as §1, §2, §3

786-0 = assay: NCI 60 human tumor cell line screen (SRB): 786-0; settings: 786-0, Renal, 48 hours, read-out: GI50 values (μM conc.)
Description: as §1, §2, §3

SF-539 = assay: NCI 60 human tumor cell line screen (SRB): SF-539; settings: SF-539, CNS, 48 hours, read-out: GI50 values (μM conc.)
Description: as §1, §2, §3

OVCAR-5 = assay: NCI 60 human tumor cell line screen (SRB): OVCAR-5; settings: OVCAR-5, Ovarian, 48 hours, read-out: GI50 values (μM conc.)
Description: as §1, §2, §3

EKVX = assay: NCI 60 human tumor cell line screen (SRB): EKVX; settings: Non-small cell lung, 48 hours, read-out: GI50 values (μM conc.)
Description: as §1, §2, §3

NCI-H460 = assay: NCI 60 human tumor cell line screen (SRB): NCI-H460; settings: NCI-H460, Non-small cell lung, 48 hours, read-out: GI50 values (μM conc.)
Description: as §1, §2, §3

SF-268 = assay: NCI 60 human tumor cell line screen (SRB): SF-268; settings: SF-268, CNS, 48 hours, read-out: GI50 values (μM conc.)
Description: as §1, §2, §3

NCI-H522 = assay: NCI 60 human tumor cell line screen (SRB): NCI-H522; settings: NCI-H522, Non-small cell lung, 48 hours, read-out: GI50 values (μM conc.)
Description: as §1, §2, §3

COLO-205 = assay: NCI 60 human tumor cell line screen (SRB): COLO-205; settings: COLO-205, Colon, 48 hours, read-out: GI50 values (μM conc.)
Description: as §1, §2, §3

M14 = assay: NCI 60 human tumor cell line screen (SRB): M14; settings: M14, Melanoma, 48 hours, read-out: GI50 values (μM conc.)
Description: as §1, §2, §3

MDA-MB-231/ATCC = assay: NCI 60 human tumor cell line screen (SRB): MDA-MB-231/ATCC; settings: Breast, 48 hours, read-out: GI50 values (μM conc.)
Description: as §1, §2, §3

A498 = assay: NCI 60 human tumor cell line screen (SRB): A498; settings: A498, Renal, 48 hours, read-out: GI50 values (μM conc.)
Description: as §1, §2, §3

RXF 393 = assay: NCI 60 human tumor cell line screen (SRB): RXF 393; settings: RXF 393, Renal, 48 hours, read-out: GI50 values (μM conc.)
Description: as §1, §2, §3

OVCAR-4 = assay: NCI 60 human tumor cell line screen (SRB): OVCAR-4; settings: OVCAR-4, Ovarian, 48 hours, read-out: GI50 values (μM conc.)
Description: as §1, §2, §3

NCI-H322M = assay: NCI 60 human tumor cell line screen (SRB): NCI-H322M; settings: Non-small cell lung, 48 hours, read-out: GI50 values (μM conc.)
Description: as §1, §2, §3

OVCAR-3 = assay: NCI 60 human tumor cell line screen (SRB): OVCAR-3; settings: OVCAR-3, Ovarian, 48 hours, read-out: GI50 values (μM conc.)
Description: as §1, §2, §3

IGROV1 = assay: NCI 60 human tumor cell line screen (SRB): IGROV1; settings: IGROV-1, IGROV1, Ovarian, 48 hours, read-out: GI50 values (μM conc.)
Description: as §1, §2, §3

NCI/ADR-RES = assay: NCI 60 human tumor cell line screen (SRB): NCI/ADR-RES; settings: Ovarian, 48 hours, read-out: GI50 values (μM conc.)
Description: as §1, §2, §3

[1] = MCF7, Breast, 48 hours, SRB, read-out: GI50 values (μM conc.)
[2] = MCF7, comparison table, read-out: GI50 μM in MCF7

Compound	GI50 (DU-145) [µM]	GI50 (HT29) [µM]	GI50 (ACHN) [µM]	GI50 (CCRF-CEM) [µM]	GI50 (OVCAR-8) [µM]	GI50 (RPMI-8226) [µM]	GI50 (SK-MEL-5) [µM]	GI50 (UACC-257) [µM]	GI50 (MCF7; [1]) [µM]	GI50 (MCF7; [2]) [µM]	GI50 (UACC-62) [µM]	GI50 (NCI-H226) [µM]	GI50 (LOX IMVI) [µM]	GI50 (786-0) [µM]	GI50 (SF-539) [µM]	GI50 (OVCAR-5) [µM]	GI50 (EKVX) [µM]	GI50 (NCI-H460) [µM]	GI50 (SF-268) [µM]	GI50 (NCI-H522) [µM]	further results
COc1cc(C(=O)/C=C/c2cccnc2Nc2ccccc2)cc(OC)c1OC [6a, (E)-3-(2-(Phenylamino)pyridin-3-yl)-1-(3,4,5-trimethoxyphenyl)prop-2-en-1-one]	0.72	0.51	1.28	0.32	1.27	0.35	1.34	1.51	0.35	0.35	1.29	1.23	0.49	1.29	1.65	1.54	1.61	1.8	1.55	0.49	GI50 (COLO-205): 1.29 µM; GI50 (M14): 1.5 µM; GI50 (MDA-MB-231/ATCC): 1.4 µM; GI50 (A498): 1.42 µM; GI50 (RXF 393): 1.12 µM; GI50 (OVCAR-4): 1.45 µM; GI50 (NCI-H322M): 1.9 µM; GI50 (OVCAR-3): 0.42 µM; GI50 (IGROV1): 2.37 µM; GI50 (NCI/ADR-RES): 1.03 µM
COc1cc(Nc2ncccc2/C=C/C(=O)c2cc(OC)c(OC)c(OC)c2)cc(OC)c1OC [6v, (E)-1-(3,4,5-Trimethoxyphenyl)-3-(2-(3,4,5-trimethoxyphenylamino)pyridin-3-yl)prop-2-en-1-one]	6.22	5.51	5.34	7.08	6.7	6.83	4.17	8.52	3.97	3.97	4.96	10.8	4.51	5.98	12.2	16.3	7.55	3.61	8.19	7.44	GI50 (COLO-205): 4.44 µM; GI50 (M14): 8.99 µM; GI50 (MDA-MB-231/ATCC): 12.6 µM; GI50 (A498): 2.64 µM; GI50 (RXF 393): 5.22 µM; GI50 (OVCAR-4): 9.78 µM; GI50 (NCI-H322M): 21.1 µM; GI50 (OVCAR-3): 7.45 µM; GI50 (IGROV1): 12.6 µM; GI50 (NCI/ADR-RES): 4.44 µM

From patent publication US9006451B1, “2-anilinonicotinyl based chalcones useful as potential anticancer agents and process for preparation thereof” (Council of Scientific and Industrial Research, priority 2013, dated 2015)
